Test results from patent US6737383B1, “Herbicidal oxadiazolidines” (priority 1999, dated 2004).

Assays:
smallflower flatsedge = assay: Test B flood test smallflower flatsedge; assay type: in vivo, Cyperus difformis
Outline: (§1)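 Read-out is a visual response score from 0 (no effect) to 10 (complete control), assigned by comparison with untreated controls. Treatment was applied at the 2-leaf stage, and plants stayed in the greenhouse for twelve to sixteen days before scoring.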

crabgrass = assay: Test B pre/postemergence crabgrass; assay type: in vivo, Digitaria sanguinalis
Outline: (§2)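 Test chemicals in a non-phytotoxic solvent mixture with surfactant were sprayed preemergence onto planted seeds and postemergence onto plants 2 to 18 cm tall (1- to 4-leaf stage). After twelve to sixteen days in a greenhouse, injury was visually rated against untreated controls from 0 (no effect) to 10 (complete control).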

rice = assay: Test B flood test rice; assay type: in vivo, Oryza sativa
Outline: as §1

rape = assay: Test B pre/postemergence rape; assay type: in vivo, Brassica napus
Outline: as §2

bamyardgrass = assay: Test B flood test barnyardgrass; assay type: in vivo, Echinochloa crus-galli
Outline: as §1

pigweed = assay: Test B pre/postemergence pigweed; assay type: in vivo, Amaranthus retroflexus
Outline: as §2

wheat = assay: Test B pre/postemergence wheat; assay type: in vivo, Triticum aestivum
Outline: as §2

cocklebur = assay: Test B pre/postemergence cocklebur; assay type: in vivo, Xanthium strumarium
Outline: as §2

purple nutsedge = assay: Test B pre/postemergence purple nutsedge; assay type: in vivo, Cyperus rotundus
Outline: as §2

sugar beet = assay: Test B pre/postemergence sugar beet; assay type: in vivo, Beta vulgaris
Outline: as §2

duck salad = assay: Test B flood test duck salad; assay type: in vivo, Heteranthera limosa
Outline: as §1

giant foxtail = assay: Test B pre/postemergence giant foxtail; assay type: in vivo, Setaria faberii
Outline: as §2

morningglory = assay: Test B pre/postemergence morningglory; assay type: in vivo, Ipomoea hederacea
Outline: as §2

surinam grass = assay: Test B pre/postemergence surinam grass; assay type: in vivo, Brachiaria decumbens
Outline: as §2

corn = assay: Test B pre/postemergence corn; assay type: in vivo, Zea mays
Outline: as §2

soybean = assay: Test B pre/postemergence soybean; assay type: in vivo, Glycine max
Outline: as §2

wild oat = assay: Test B pre/postemergence wild oat; assay type: in vivo, Avena fatua
Outline: as §2

blackgrass = assay: Test B pre/postemergence blackgrass; assay type: in vivo, Alopecurus myosuroides
Outline: as §2

velvetleaf = assay: Test B pre/postemergence velvetleaf; assay type: in vivo, Abutilon theophrasti
Outline: as §2

[1] = Rate 31 g/ha, Pre-emergence section (flood test species), scale 0 to 10
[2] = Rate 62 g/ha, flood test species, Pre-emergence, visual evaluation after twelve to sixteen days
[3] = Rate 125 g/ha, under heading Pre-emergence, flood test species, visual evaluation after twelve to sixteen days
[4] = Rate 250 g/ha, Pre-emergence (flood test species), scale 0 to 10, 0 is no effect, 10 is complete control
[5] = Postemergence, Rate 31 g/ha, visual rating, scale 0 to 10 (0 no effect, 10 complete control)
[6] = Postemergence, Rate 62 g/ha, scale 0 to 10, 0 is no effect, 10 is complete control
[7] = Postemergence, Rate 125 g/ha, scale of 0 to 10 where 0 is no effect and 10 is complete control
[8] = Postemergence, Rate 250 g/ha, scale of 0 to 10, 0 is no effect, 10 is complete control
[9] = Preemergence, Rate 31 g/ha, visual rating, scale 0 to 10 (0 no effect, 10 complete control)
[10] = Preemergence, Rate 62 g/ha, scale of 0 to 10 where 0 is no effect and 10 is complete control
[11] = Preemergence, Rate 125 g/ha, scale of 0 to 10 where 0 is no effect and 10 is complete control
[12] = Preemergence, Rate 250 g/ha, scale 0 to 10 (0 no effect, 10 complete control)

## CC(C)N(C(=O)n1oc(=O)n(CCC2=NOCCC2)c1=O)c1ccc(F)cc1 [Compound 656]
Smallflower flatsedge; [1]
  S. Flatsedge plant response rating: 0
Smallflower flatsedge; [2]
  Plant response rating, S. Flatsedge (0 to 10 scale, 0 is no effect, 10 is complete control): 0
Smallflower flatsedge; [3]
  S. Flatsedge plant response rating (0 to 10 scale, 0 is no effect, 10 is complete control): 0
Smallflower flatsedge; [4]
  S. Flatsedge plant response rating: 0
crabgrass; [5]
  Crabgrass plant response rating: 0
crabgrass; [6]
  Plant response rating, Crabgrass: 0
crabgrass; [7]
  Crabgrass plant response rating: 0
crabgrass; [8]
  Crabgrass plant response rating: 8
crabgrass; [9]
  Crabgrass plant response rating: 6
crabgrass; [10]
  Crabgrass plant response rating: 7
crabgrass; [11]
  Crabgrass plant response rating: 7
crabgrass; [12]
  Plant response rating, Crabgrass: 8
rice; [1]
  Rice plant response rating: 0
rice; [2]
  Plant response rating, Rice (0 to 10 scale, 0 is no effect, 10 is complete control): 0
rice; [3]
  Rice plant response rating (0 to 10 scale, 0 is no effect, 10 is complete control): 0
rice; [4]
  Rice plant response rating: 0
rape; [5]
  Rape plant response rating: 0
rape; [6]
  Plant response rating, Rape: 0
rape; [7]
  Rape plant response rating: 0
rape; [10]
  Rape plant response rating: 0
rape; [11]
  Rape plant response rating: 0
rape; [12]
  Plant response rating, Rape: 0
bamyardgrass; [1]
  Barnyardgrass plant response rating: 0
bamyardgrass; [2]
  Plant response rating, Barnyardgrass (0 to 10 scale, 0 is no effect, 10 is complete control): 0
bamyardgrass; [3]
  Barnyardgrass plant response rating (0 to 10 scale, 0 is no effect, 10 is complete control): 0
bamyardgrass; [4]
  Barnyardgrass plant response rating: 0
pigweed; [5]
  Redroot pigweed plant response rating: 0
pigweed; [6]
  Plant response rating, Redroot pigweed: 0
pigweed; [7]
  Redroot pigweed plant response rating: 0
pigweed; [10]
  Redroot pigweed plant response rating: 0
pigweed; [11]
  Redroot pigweed plant response rating: 4
pigweed; [12]
  Plant response rating, Redroot pigweed: 6
wheat; [5]
  Wheat plant response rating: 0
wheat; [6]
  Plant response rating, Wheat: 0
wheat; [7]
  Wheat plant response rating: 0
wheat; [10]
  Wheat plant response rating: 0
wheat; [11]
  Wheat plant response rating: 0
wheat; [12]
  Plant response rating, Wheat: 0
cocklebur; [5]
  Cocklebur plant response rating: 0
cocklebur; [6]
  Plant response rating, Cocklebur: 0
cocklebur; [7]
  Cocklebur plant response rating: 0
cocklebur; [8]
  Cocklebur plant response rating: 0
cocklebur; [9]
  Cocklebur plant response rating: 0
cocklebur; [10]
  Cocklebur plant response rating: 0
cocklebur; [11]
  Cocklebur plant response rating: 0
cocklebur; [12]
  Plant response rating, Cocklebur: 0
Purple nutsedge; [5]
  Nutsedge plant response rating: 0
Purple nutsedge; [6]
  Plant response rating, Nutsedge: 0
Purple nutsedge; [7]
  Nutsedge plant response rating: 0
Purple nutsedge; [10]
  Nutsedge plant response rating: 0
Purple nutsedge; [11]
  Nutsedge plant response rating: 0
Purple nutsedge; [12]
  Plant response rating, Nutsedge: 0
Sugar beet; [5]
  Sugarbeets plant response rating: 0
Sugar beet; [6]
  Plant response rating, Sugarbeets: 0
Sugar beet; [7]
  Sugarbeets plant response rating: 0
Sugar beet; [10]
  Sugarbeets plant response rating: 0
Sugar beet; [11]
  Sugarbeets plant response rating: 0
Sugar beet; [12]
  Plant response rating, Sugarbeets: 3
Duck salad; [1]
  Ducksalad plant response rating: 0
Duck salad; [2]
  Plant response rating, Ducksalad (0 to 10 scale, 0 is no effect, 10 is complete control): 0
Duck salad; [3]
  Ducksalad plant response rating (0 to 10 scale, 0 is no effect, 10 is complete control): 0
Duck salad; [4]
  Ducksalad plant response rating: 0
Giant foxtail; [5]
  Giant foxtail plant response rating: 0
Giant foxtail; [6]
  Plant response rating, Giant foxtail: 3
Giant foxtail; [7]
  Giant foxtail plant response rating: 9
Giant foxtail; [8]
  Giant foxtail plant response rating: 9
Giant foxtail; [9]
  Giant foxtail plant response rating: 4
Giant foxtail; [10]
  Giant foxtail plant response rating: 4
Giant foxtail; [11]
  Giant foxtail plant response rating: 10
Giant foxtail; [12]
  Plant response rating, Giant foxtail: 10
morningglory; [5]
  Morningglory plant response rating: 0
morningglory; [6]
  Plant response rating, Morningglory: 1
morningglory; [7]
  Morningglory plant response rating: 2
morningglory; [8]
  Morningglory plant response rating: 2
morningglory; [10]
  Morningglory plant response rating: 0
morningglory; [11]
  Morningglory plant response rating: 0
morningglory; [12]
  Plant response rating, Morningglory: 0
Surinam grass; [5]
  B. signalgrass plant response rating: 0
Surinam grass; [6]
  Plant response rating, B. signalgrass: 0
Surinam grass; [7]
  Plant response rating, B. signalgrass: 2
Surinam grass; [8]
  B. signalgrass plant response rating: 5
Surinam grass; [9]
  B. signalgrass plant response rating: 0
Surinam grass; [10]
  B. signalgrass plant response rating: 0
Surinam grass; [11]
  B. signalgrass plant response rating: 2
Surinam grass; [12]
  Plant response rating, B. signalgrass: 6
corn; [5]
  Corn plant response rating: 0
corn; [6]
  Plant response rating, Corn: 0
corn; [7]
  Corn plant response rating: 0
corn; [8]
  Corn plant response rating: 0
corn; [9]
  Corn plant response rating: 0
corn; [10]
  Corn plant response rating: 0
corn; [11]
  Corn plant response rating: 0
corn; [12]
  Plant response rating, Corn: 0
soybean; [5]
  Soybean plant response rating: 1
soybean; [6]
  Plant response rating, Soybean: 2
soybean; [7]
  Soybean plant response rating: 2
soybean; [10]
  Soybean plant response rating: 0
soybean; [11]
  Soybean plant response rating: 0
soybean; [12]
  Plant response rating, Soybean: 0
Wild oat; [5]
  Wild oats plant response rating: 0
Wild oat; [6]
  Plant response rating, Wild oats: 0
Wild oat; [7]
  Wild oats plant response rating: 0
Wild oat; [10]
  Wild oats plant response rating: 0
Wild oat; [11]
  Wild oats plant response rating: 0
Wild oat; [12]
  Plant response rating, Wild oats: 6
blackgrass; [5]
  Blackgrass plant response rating: 6
blackgrass; [6]
  Plant response rating, Blackgrass: 6
blackgrass; [7]
  Blackgrass plant response rating: 7
blackgrass; [8]
  Blackgrass plant response rating: 9
blackgrass; [9]
  Blackgrass plant response rating: 2
blackgrass; [10]
  Blackgrass plant response rating: 4
blackgrass; [11]
  Blackgrass plant response rating: 4
blackgrass; [12]
  Plant response rating, Blackgrass: 5
velvetleaf; [5]
  Velvetleaf plant response rating: 0
velvetleaf; [6]
  Plant response rating, Velvetleaf: 0
velvetleaf; [7]
  Velvetleaf plant response rating: 0
velvetleaf; [10]
  Velvetleaf plant response rating: 2
velvetleaf; [11]
  Velvetleaf plant response rating: 4
velvetleaf; [12]
  Plant response rating, Velvetleaf: 6
